Columns and labels:
Details in all cases: Homo sapiens
MCF7 = assay: In vitro inhibitory activity against MCF-7 breast cancer cell lines; assay type: functional
CAKI-1 = assay: In vitro inhibitory activity against CAKI-1 […] cancer cell lines; assay type: functional
SF-295 = assay: In vitro inhibitory activity against SF-295 […] cancer cell lines; assay type: functional
MDA-N = assay: In vitro inhibitory activity against MDA-N breast cancer cell lines; assay type: functional
SK-MEL-5 = assay: In vitro inhibitory activity against SK-MEL-5 melanoma cancer cell lines; assay type: functional
MOLT-4 = assay: In vitro inhibitory activity against MOLT-4 cancer cell lines; assay type: functional
HT-29 = assay: In vitro inhibitory activity against HT-29 colon cancer cell lines; assay type: functional
HCT-15 = assay: In vitro inhibitory activity against HCT-15 colon cancer cell lines; assay type: functional
RPMI-8226 = assay: In vitro inhibitory activity against […] cancer cell lines; assay type: functional
SR = assay: In vitro inhibitory activity against SR cancer cell lines; assay type: functional
A498 = assay: In vitro inhibitory activity against A-498 […] cancer cell lines; assay type: functional
K562 = assay: In vitro inhibitory activity against K-562 cancer cell lines; assay type: functional
OVCAR-5 = assay: In vitro inhibitory activity against OVCAR-5 ovarian cancer cell lines; assay type: functional
UO-31 = assay: In vitro inhibitory activity against UO-31 renal cancer cell lines; assay type: functional
NCI-H23 = assay: In vitro inhibitory activity against NIC-H23 lung cancer cell lines
HL-60 = assay: In vitro inhibitory activity against HL-60 cancer cell lines; assay type: functional
MDA-MB-435 = assay: In vitro inhibitory activity against MDA-MB-435 breast cancer cell lines; assay type: functional

SMILES	GI50 (MCF7) [µM]	GI50 (CAKI-1) [µM]	GI50 (SF-295) [µM]	GI50 (MDA-N) [µM]	GI50 (SK-MEL-5) [µM]	GI50 (MOLT-4) [µM]	GI50 (HT-29) [µM]	GI50 (HCT-15) [µM]	GI50 (RPMI-8226) [µM]	GI50 (SR) [µM]	GI50 (A498) [µM]	GI50 (K562) [µM]	GI50 (OVCAR-5) [µM]	GI50 (UO-31) [µM]	GI50 (NCI-H23) [µM]	GI50 (HL-60) [µM]	GI50 (MDA-MB-435) [µM]
COc1ccc2[nH]c3c(O)c(-c4c(C)cc5c([nH]c6ccc(OC)cc65)c4O)c(C)cc3c2c1	4.49	4.27	5.11	4.5	4.34	3.23	3.71	4.2	3.61	3.97	4.78	4.04	3.82	3.78	4.48	0.0321	4.34
Cc1cc2c([nH]c3ccccc32)c(O)c1-c1c(C)cc2c([nH]c3ccccc32)c1O	11.2	14.7	17.4	14.7	16.5	3.62	6.04	10.1	3.85	3.16	15.9	12.3	15	13	12.4	32.9	15
COc1cc(OC)c2[nH]c3c(O)c(-c4c(C)cc5c([nH]c6c(OC)cc(OC)cc65)c4O)c(C)cc3c2c1	8.68	9.89	10.2	8.83	8.38	8.59	8.03	8.28	10.5	9.01	7.82	9.7	9.03	6.84	8.2	2.82	12
